Legend:
[1] = Aqueous solubility in buffer; format: physicochemical; details: buffer of pH 6.5 (close to the pH of the intestine), free acid
retroviral protease = details: qualitative statement; compounds disclosed in WO 95/30670; cited from earlier work

CCC[C@@]1(CCc2ccccc2)CC(O)=C([C@H](CC)c2cccc(NS(=O)(=O)c3ccc(C(F)(F)F)cn3)c2)C(=O)O1 [compound of formula I]
solubility [1]: ~1 µg/mL | effectiveness as an inhibitor of retroviral protease (retroviral protease): especially effective
